Measured values taken from patent publication US20210371461A1, “Novel chemiluminescent substrates for Factor Xa” (Enzyre B.V., priority 2018, published 2021).
Where a SMILES comes first, the peptide text is derived from it. The star is where a group is joined. X1 = O=C(O)[C@H]1CSC(c2nc3ccc(N*)cc3s2)=N1; Decanoyl(3,6,9-trioxa) = COCCOCCOCC(=O)*

How the values were obtained:
Format in all cases: biochemical
[1] = target: T1, FXa (Homo sapiens, UniProt P00742); experiment: Michaelis-Menten kinetics of substrate with FXa (luciferase luminescence); conditions: FXa concentration 1.6 nM
T1 construct: purchased Coachrom
Method: Michaelis-Menten kinetics were determined for the enzyme FXa and its substrate MePEG2-IEGR (the TFA salt was used in these examples). The following composition was prepared in a microvial on ice:
160 μL Tris buffered saline (TBS) 50 mM Tris-HCI, 150 mM NaCI (pH 7.4)
4 μL ATP (final concentration 333 μM)
4 μL MgC2 (final concentration 8.3 mM)
12 μL Luciferase (final concentration 0.9 mg/ml)
Substrate compositions 2a-g:
Microvials were prepared with 30 μL substrate concentrations leading to final concentrations of 2000, 1333, 1000, 666, 333, 167 and 66 μM.
FXa (Coachrom, 16 nM) composition was prepared in a microvial on ice
Subsequently, the following compositions were added together in a white 384-well plate:
Subsequently the well plate was placed in a 37 ° C. thermostated Flexstation 3 (Molecular Devices). Luminescence emission wavelength was with an integration time of 1500 ms, measured for 1s every 30 s during 30 min.

[2] = target: T1, FXa; experiment: Cross reactivity assay, FXa; conditions: compared with thrombin, plasmin, tPA, FXlla
Method: (§1) To determine cross-reactivity an assay was performed using a range of coagulation enzymes at representative concentrations in human plasma. […] For tissue-type plasminogen activator (tPA) this is the conventional concentration for facilitation of fibrinolysis. A concentration of 80 nm FXa yielded a signal of 1.000.000 RLU.

[3] = target: T2, thrombin (Homo sapiens, UniProt P00734); experiment: Cross reactivity assay, thrombin; conditions: 52 nM thrombin
T2 construct: FXa acts by cleaving prothrombin, yielding active thrombin
Method: as §1

[4] = target: plasmin (Homo sapiens, UniProt P00747); experiment: Cross reactivity assay, plasmin; conditions: 8 nM plasmin
Method: as §1

[5] = target: tissue-type plasminogen activator (tPA) (Homo sapiens, UniProt P00750); experiment: Cross reactivity assay, tPA; conditions: 193 IU/mL tPA
Method: as §1

[6] = target: T3, FXlla (Homo sapiens, UniProt P00748); experiment: Cross reactivity assay, FXIIa; conditions: 145 nM FXlla
T3 construct: initiated by addition of active coagulation factors such as FXlla, FXla, or FIXa
T3 sequence (P00748 373-615 limits assumed): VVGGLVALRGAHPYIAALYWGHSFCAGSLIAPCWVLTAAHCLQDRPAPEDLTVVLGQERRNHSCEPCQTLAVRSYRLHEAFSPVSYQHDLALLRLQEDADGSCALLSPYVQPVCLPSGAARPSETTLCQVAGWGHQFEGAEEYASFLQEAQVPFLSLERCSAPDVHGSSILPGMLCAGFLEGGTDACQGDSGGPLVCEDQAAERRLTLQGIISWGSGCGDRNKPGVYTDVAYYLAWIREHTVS
Method: as §1

T1 sequence (P00742 235-488 limits assumed): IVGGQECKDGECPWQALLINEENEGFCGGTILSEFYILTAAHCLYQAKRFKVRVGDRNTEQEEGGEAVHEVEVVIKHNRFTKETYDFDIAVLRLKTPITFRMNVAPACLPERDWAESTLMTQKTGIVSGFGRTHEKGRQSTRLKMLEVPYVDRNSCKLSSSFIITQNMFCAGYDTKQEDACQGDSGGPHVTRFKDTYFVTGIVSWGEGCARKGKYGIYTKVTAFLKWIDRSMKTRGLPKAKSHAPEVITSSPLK
T1 sequence (P00742 41-179 partner limits assumed): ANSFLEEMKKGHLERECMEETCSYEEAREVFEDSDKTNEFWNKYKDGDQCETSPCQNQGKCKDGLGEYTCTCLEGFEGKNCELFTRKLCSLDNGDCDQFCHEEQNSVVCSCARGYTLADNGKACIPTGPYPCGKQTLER
Sequence of tissue-type plasminogen activator (tPA) (P00750 36-562): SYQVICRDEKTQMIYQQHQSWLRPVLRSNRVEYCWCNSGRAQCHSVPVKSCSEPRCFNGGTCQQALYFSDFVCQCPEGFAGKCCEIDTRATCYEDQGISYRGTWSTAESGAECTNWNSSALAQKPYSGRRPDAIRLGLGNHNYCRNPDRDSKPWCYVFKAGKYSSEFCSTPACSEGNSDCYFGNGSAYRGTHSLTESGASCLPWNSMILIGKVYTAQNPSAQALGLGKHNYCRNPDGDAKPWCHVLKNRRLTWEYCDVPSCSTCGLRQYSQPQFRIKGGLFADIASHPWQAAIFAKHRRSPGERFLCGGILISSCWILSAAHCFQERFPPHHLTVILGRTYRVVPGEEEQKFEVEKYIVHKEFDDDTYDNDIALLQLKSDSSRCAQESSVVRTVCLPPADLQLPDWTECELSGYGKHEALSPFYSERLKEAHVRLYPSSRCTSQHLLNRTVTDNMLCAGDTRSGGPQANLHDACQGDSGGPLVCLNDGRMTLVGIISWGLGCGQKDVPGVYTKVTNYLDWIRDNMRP
Sequence of plasmin (P00747 581-810 limits assumed): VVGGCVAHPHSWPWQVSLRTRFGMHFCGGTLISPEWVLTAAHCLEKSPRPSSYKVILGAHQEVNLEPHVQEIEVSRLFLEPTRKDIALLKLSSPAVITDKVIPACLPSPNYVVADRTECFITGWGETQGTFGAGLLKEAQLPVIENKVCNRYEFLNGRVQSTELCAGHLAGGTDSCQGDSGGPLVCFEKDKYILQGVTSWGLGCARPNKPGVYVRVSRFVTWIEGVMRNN
Sequence of plasmin (P00747 97-580 partner limits assumed): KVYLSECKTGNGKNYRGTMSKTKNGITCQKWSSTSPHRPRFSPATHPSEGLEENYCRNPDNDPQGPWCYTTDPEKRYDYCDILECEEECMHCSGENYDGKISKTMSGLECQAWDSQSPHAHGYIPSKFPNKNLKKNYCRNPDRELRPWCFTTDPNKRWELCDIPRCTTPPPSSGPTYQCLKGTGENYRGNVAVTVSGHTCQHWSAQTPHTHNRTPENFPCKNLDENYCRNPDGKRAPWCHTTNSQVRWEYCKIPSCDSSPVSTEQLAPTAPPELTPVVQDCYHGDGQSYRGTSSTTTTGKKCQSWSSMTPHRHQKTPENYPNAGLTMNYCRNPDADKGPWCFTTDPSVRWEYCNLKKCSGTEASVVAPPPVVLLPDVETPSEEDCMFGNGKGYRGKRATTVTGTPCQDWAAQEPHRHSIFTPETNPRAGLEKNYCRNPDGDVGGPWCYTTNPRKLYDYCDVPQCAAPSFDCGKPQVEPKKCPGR

Question: How did the “Kcat=Vmax/[FXa]” value [1] turn out when `CC[C@H](C)[C@H](NC(=O)COCCOCCOC)C(=O)N[C@@H](CCC(=O)O)C(=O)NCC(=O)N[C@@H](CCCNC(=N)N)C(=O)Nc1ccc2nc(C3=N[C@@H](C(=O)O)CS3)sc2c1` [MePEG2-IEGR] ({Decanoyl(3,6,9-trioxa)}-IEGR-X1) was run?
Answer: 1.05e+14 s⁻¹

Question: What about the Km ([1]; 37 °C) of the same compound?
Answer: 619 µM

Question: What about the Vmax ([1]; 37 °C, luciferase/ATP/Mg readout) of the same compound?
Answer: 468000 RLU

Question: What about the “cross-reactivity with serine proteases other than FXa” value [2] of the same compound?
Answer: minimal cross-reactivity

Question: What about the luminescent signal [3] of the same compound?
Answer: ~30.000 RLU

Question: And the luminescent signal [4]?
Answer: ~8.000 RLU

Question: What about the luminescent signal [5] of the same compound?
Answer: ~6.000 RLU

Question: What about the luminescent signal [6] of the same compound?
Answer: ~500 RLU
